Source: patent publication US20240216395A1, “19-NOR C3,3-DISUBSTITUTED C21 -N-PYRAZOLYL STEROID FOR USE IN TREATING MAJOR DEPRESSIVE DISORDER AND […]” (priority 2021, published 2024)

Experiments:
[1] = system: adult female subjects with severe postpartum depression (PPD); experiment: Phase 3 placebo-controlled study of Compound (1) 30 mg QD for 14 days in PPD (NCT02978326, ROBIN): efficacy and post hoc analyses; assay type: in vivo, human
Experimental: Example 4. A Multicenter, Randomized, Double-Blind, Parallel-Group, Placebo-Controlled Study Evaluating the Efficacy, Safety, and Pharmacokinetics of Compound (1) in the Treatment of Adult Female Subjects with Severe Postpartum Depression
This was a multicenter, randomized, double-blind, parallel-group, placebo-controlled study of the efficacy, safety, and pharmacokinetics of Compound (1) in adult subjects diagnosed with severe PPD.
Randomized subjects received 30 mg QD of study drug (Compound (1) Capsules or placebo). Those subjects who could not tolerate 30 mg QD will received 20 mg QD for the remainder of the Treatment Period. Subjects who experienced intolerable adverse events (AEs) at the 20 mg QD dose level could be discontinued from study treatment at the discretion of the Investigator. Subjects were instructed to take the study drug with food. Study drug was self-administered by subjects in the evening (8:00 pm±30 min) on an outpatient basis for the entire 14-day Treatment Period. Study drug administration was monitored via a follow-up call from the site each evening (within approximately 1 hour following the scheduled evening dose) on Days 1 to 14.
The primary efficacy endpoint was the change from baseline in HAM-D total score at the end of the Treatment Period (Day 15). The HAM-D total score was calculated as the sum of the 17 individual item scores.
Secondary endpoints included: • Change from baseline in the HAM-D total score at all time points other than Day 15; • HAM-D Response defined as a 50% or greater reduction from baseline in HAM-D total score; • HAM-D Remission defined as a HAM-D total score of ≤7; • Change from baseline in MADRS total score at Day 15 and other time points; • CGI-I Response defined as “very much improved” or “much improved”; • Change from baseline in HAM-A total score at Day 15 and other time points; • Changes from baseline in HAM-D subscales and individual item scores at Day 15 and other time points
The change from baseline in HAM-D total score was analyzed using a mixed effects model for repeated measures (MMRM); the model included center, treatment, baseline HAM-D total score, assessment time point, and time point-by-treatment as explanatory variables. All post-baseline time points were included in the model. The primary comparison was between Compound (1) and placebo at the 15-day time point. Model-based point estimates (e.g., least squares [LS] means), 95% confidence intervals, and p-values were reported. An unstructured covariance structure was used to model the within-subject errors. Continuous secondary and other variables were analyzed using similar methods.
Binary efficacy endpoints, including responder and remission endpoints, were summarized and analyzed using the generalized estimating equation method.
As indicated in Example 4, women (N=151), ages 18-45, ≤6 months postpartum, diagnosed with PPD (defined as a major depressive episode with onset in the 3rd trimester or ≤4 weeks postpartum), and a baseline HAMD-17 total score ≥26, were randomized to study drug in an outpatient setting.
Patients were randomized 1:1 to receive oral Compound (1) 30 mg or placebo once daily for 14 days, with 4 weeks follow-up. The change from baseline (CFB) vs placebo in HAMD-17 at Day 15 was the primary endpoint. Treatment emergent adverse events (TEAEs) were assessed throughout the study.
Post hoc analyses explored concurrent anxiety and depression improvement using a combination of scales at Days 15 and 45: (1) HAMD-17≤7+HAM-A≤7, or (2) MADRS ≤10+HAM-A≤7. Depression improvement was defined as either a HAMD-17 total score ≤7, or a MADRS total score […]. Improvement in anxiety symptoms was defined as a HAM-A total score ≤7.
CFB in HAMD-17 total score was evaluated using the least-squares mean from a mixed effect model for repeated measures. […]

[2] = system: nondependent, recreational users of CNS depressants; experiment: Abuse potential main study, treatment phase: subjective VAS measures (Drug Liking, Overall Drug Liking, Take Drug Again, High, Good/Bad/Any Drug Effects, Alertness/Drowsiness, Drug Similarity)
[3] = Alprazolam 1.5 mg - Compound (1) 30 mg
[4] = Alprazolam 1.5 mg - Compound (1) 30 mg (relative abuse potential)
[5] = Alprazolam 1.5 mg - Compound (1) 60 mg
[6] = Alprazolam 1.5 mg - Compound (1) 60 mg (relative abuse potential)
[7] = Alprazolam 1.5 mg - Compound (1) 90 mg
[8] = Alprazolam 1.5 mg - Compound (1) 90 mg (relative abuse potential)
[9] = Alprazolam 3 mg - Compound (1) 30 mg
[10] = Alprazolam 3 mg - Compound (1) 30 mg (relative abuse potential)
[11] = Alprazolam 3 mg - Compound (1) 60 mg
[12] = Alprazolam 3 mg - Compound (1) 60 mg (relative abuse potential)
[13] = Alprazolam 3 mg - Compound (1) 90 mg
[14] = Alprazolam 3 mg - Compound (1) 90 mg (relative abuse potential)
[15] = Compound (1) 30 mg - placebo (absolute abuse potential)
[16] = Compound (1) 60 mg - placebo (absolute abuse potential)
[17] = Compound (1) 90 mg - placebo (absolute abuse potential)

## C[C@@]1(O)CC[C@H]2[C@H](CC[C@@H]3[C@@H]2CC[C@]2(C)[C@@H](C(=O)Cn4cc(C#N)cn4)CC[C@@H]32)C1 [Compound (1), 1-(2-((3R,5R,8R,9R,10S,13S,14S,17S)-3-hydroxy-3,13-dimethylhexadecahydro-1H-cyclopenta[a]phenanthren-17-yl)-2-oxoethyl)-1H-pyrazole-4-carbonitrile]
[1]
  HAMD-17 early insomnia item mean reduction from baseline: −1.3
  HAMD-17 late insomnia item mean reduction from baseline: −1.3
  HAMD-17 middle insomnia item mean reduction from baseline: −1.3
[1]; Day 8
  EPDS-3A least square mean CFB: −2.2
[1]; Day 15
  Concurrent improvement HAMD-17 ≤ 7 and HAM-A ≤ 7, OR (95% CI) vs placebo: 2.75 (1.30, 5.84)
  Concurrent improvement MADRS ≤ 10 and HAM-A ≤ 7, OR (95% CI) vs placebo: 2.35 (1.15, 4.80)
  LS mean difference vs placebo (as printed after HAMD-17 CFB): −2.4
  MADRS Remission rate: 54.1%
  MADRS Response rate: 73.0%
[1]; Day 15 (primary endpoint)
  HAMD-17 total score CFB: −17.8
[1]; Day 45
  Concurrent improvement HAMD-17 ≤ 7 and HAM-A ≤ 7, OR (95% CI) vs placebo: 3.45 (1.66, 7.16)
  Concurrent improvement MADRS ≤ 10 and HAM-A ≤ 7, OR (95% CI) vs placebo: 3.09 (1.50, 6.36)
  EPDS-3A least square mean CFB: −3.6
[1]; day 3
  HAM-A Remission rate: 27.0%
  HAMD-17-Ins CFB, Compound (1)-placebo difference: −0.841
  HAMD-17 A/S least squares mean CFB: −3.8
[1]; day 8
  HAM-A Response rate: 69.3%
[1]; day 15
  EPDS remission (<13) rate: 64%
  HAMD-17 A/S Response rate: 68.9%
  HAMD-17 Remission rate: 45%
  HAMD-17 Response rate: 72%
  NNT for EPDS remission <13: 6
  NNT, rapid outcomes: 5
[1]; day 45
  HAMD-17 A/S least squares mean CFB: −5.7
  NNT, sustained outcomes: 5
  PHQ-9 total score least squares mean decrease: −11.8
  SF-36v2 domains (SF, MH, PF, RP, BP) and MCS vs placebo: statistically significant improvements
[1]; days 15 and 45
  Sustained HAMD-17 Remission rate: 37%
  Sustained HAMD-17 Response rate: 59%
[2]; 30 mg
  Alert/Drowsiness VAS: time scores remained below neutral value of 50: 6-7 hours postdose
[2]; 60 and 90 mg
  Alert/Drowsiness VAS: time scores remained below neutral value of 50: 8-10 hours postdose
[2]; [3]
  Drug Liking Emax difference: 12.50
  Overall Drug Liking Emax difference: 13.92
  Take Drug Again Emax difference: 13.67
[2]; [4]
  Bad Drug Effects Emax difference: 0
  Good Drug Effects Emax difference: 24.62
  High Effects Emax difference: 24.59
[2]; [5]
  Drug Liking Emax difference: 2.00
  Overall Drug Liking Emax difference: 5.63
  Take Drug Again Emax difference: 0
[2]; [6]
  Bad Drug Effects Emax difference: 0
  Good Drug Effects Emax difference: 0.00
  High Effects Emax difference: 7.57
[2]; [7]
  Drug Liking Emax difference: −3.55
  Overall Drug Liking Emax difference: 1.12
  Take Drug Again Emax difference: 0
[2]; [8]
  Bad Drug Effects Emax difference: −12.93
  Good Drug Effects Emax difference: −12.00
  High Effects Emax difference: −12.00
[2]; [9]
  Drug Liking Emax difference: 14.00
  Overall Drug Liking Emax difference: 14.62
  Take Drug Again Emax difference: 16.43
[2]; [10]
  Bad Drug Effects Emax difference: 1.00
  Good Drug Effects Emax difference: 33.48
  High Effects Emax difference: 32.45
[2]; [11]
  Drug Liking Emax difference: 2.50
  Overall Drug Liking Emax difference: 6.33
  Take Drug Again Emax difference: 7.15
[2]; [12]
  Bad Drug Effects Emax difference: 1.00
  Good Drug Effects Emax difference: 7.50
  High Effects Emax difference: 15.42
[2]; [13]
  Drug Liking Emax difference: 0.00
  Overall Drug Liking Emax difference: 1.82
  Take Drug Again Emax difference: 0
[2]; [14]
  Bad Drug Effects Emax difference: −1.82
  Good Drug Effects Emax difference: −1.00
  High Effects Emax difference: −4.14
[2]; Compound (1) 30 mg - placebo
  Drug Liking Emax difference: 12.00
  Overall Drug Liking Emax difference: 6.50
  Take Drug Again Emax difference: 9.00
[2]; [15]
  Bad Drug Effects Emax difference: 0
  Good Drug Effects Emax difference: 19.98
  High Effects Emax difference: 19.21
[2]; Compound (1) 60 mg - placebo
  Drug Liking Emax difference: 18.12
  Overall Drug Liking Emax difference: 16.75
  Take Drug Again Emax difference: 18.57
[2]; [16]
  Bad Drug Effects Emax difference: 0
  Good Drug Effects Emax difference: 40.53
  High Effects Emax difference: 36.23
[2]; Compound (1) 90 mg
  Drug Similarity: Benzodiazepines Similarity median score: 92.5
  Drug Similarity: Opioids Similarity median score: 39.0
[2]; Compound (1) 90 mg - placebo
  Drug Liking Emax difference: 25.00
  Overall Drug Liking Emax difference: 21.27
  Take Drug Again Emax difference: 24.50
[2]; [17]
  Bad Drug Effects Emax difference: 0
  Good Drug Effects Emax difference: 59.00
  High Effects Emax difference: 55.80
[2]; all dosages, 12 hours postdose
  Drug Similarity: Placebo Similarity median score: zero
